Assay results published in publication PMC3371188 (Applied Microbiology and Biotechnology, 2012).

Biological target: AldO (Streptomyces coelicolor, UniProt Q9ZBU1)
Test: HRP-coupled H2O2 assay, thermostability and temperature optimum
Format: biochemical
Conditions: 10 mM xylitol; 50 mM potassium phosphate pH 7.5

Chain of AldO (Q9ZBU1 whole entry): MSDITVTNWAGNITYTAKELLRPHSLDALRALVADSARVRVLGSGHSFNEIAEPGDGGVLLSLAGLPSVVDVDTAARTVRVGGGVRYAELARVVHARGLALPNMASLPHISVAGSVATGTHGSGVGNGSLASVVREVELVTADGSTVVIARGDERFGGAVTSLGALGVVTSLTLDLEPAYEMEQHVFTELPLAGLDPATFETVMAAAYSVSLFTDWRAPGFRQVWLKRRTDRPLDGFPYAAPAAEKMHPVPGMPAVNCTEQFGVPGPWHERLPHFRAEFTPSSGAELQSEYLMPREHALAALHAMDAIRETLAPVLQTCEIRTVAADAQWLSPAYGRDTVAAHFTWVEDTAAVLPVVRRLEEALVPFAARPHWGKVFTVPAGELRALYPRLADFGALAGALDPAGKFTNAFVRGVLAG

OC[C@@H](O)[C@H](O)[C@@H](O)CO [xylitol]
HRP-coupled H2O2 assay, thermostability and temperature optimum: Oxidase activity with xylitol as substrate was measured after enzyme solutions had been incubated
